In patent US4056626A, “Pharmaceutical composition containing benzofuran derivative” (Kakenyaku Kako Co., Ltd., priority 1971, dated 1977):
“And” between values parts separate entries of the source, which are not always exact repeats. Equal entries are not always repeated. “Also recorded” adds a separate entry of the source.

Assays:
cardiac arrhythmias = experiment: clinical study of cardiac arrhythmias; type: in vivo, patients; design: key to Treatment evaluation: Extremely effective (++): An outstanding improvement of subjective symptom and an outstanding improvement in electrocardiogram were observed.; Effective (+): Therapeutic effects were clearly observed.; Slightly effective (±): Subjective symptom was fairly decreased and some improvement in electrocardiogram was observed.; Non-effective (-): Any therapeutic effect was not observed; settings: oral 30 to 60 mg./day, 10 days to 12 weeks
Experimental: The active ingredient, 2-acetyl-7-(2-hydroxy-3-isopropylaminopropoxy)benzofuran hydrochloride, contained in the capsules obtained in Example 47 was administrered orally in a dose of 30 to 60 mg./day for a period of 10 days to 12 weeks. The treatment evaluation was determined according to the following standard: […]

angina pectoris = experiment: clinical study of angina pectoris; type: in vivo, patients; design: key: Extremely effective (++): An outstanding improvement of subjective symptom and an outstanding improvement in electrocardiogram were observed.; Effective (+): Therapeutic effects were clearly observed.; Slightly effective (±): Subjective symptom was fairly decreased and some improvement in electrocardiogram was observed.; Non-effective (-): Any therapeutic effect was not observed; settings: oral 15 to 60 mg./day, 1 to 10 weeks, per patient, hydrochloride
Experimental: A clinical study relating to angina pectoris was made covering the patients shown in Table V. The active ingredient, 2-acetyl-7-(2-hydroxy-3-isopropylaminopropoxy)benzofuran hydrochloride, contained in the capsules obtained in Example 47 was administered orally in a dose of 15 to 60 mg./day for a period of 1 to 10 weeks.

hypertension = experiment: clinical study of hypertension; type: in vivo; settings: four hypertensive patients; oral 60 mg./day, 30 days
Excerpt: To a patient of 68 age who was diagnosed as an essential hypertension was orally administered the active ingredient, 2-acetyl-7-(2-hydroxy-3-isopropyl aminopropoxy)benzofuran hydrochloride, […] As a result, the maximum blood pressure of 210 mmHg and the minimum blood pressure of 88 mmHg before treatment were decreased to 176 mmHg and 76 mmHg after treatment, respectively.

[1] = tested on: tachycardia in hyperthyroidism; experiment: clinical study: tachycardia in hyperthyroidism, single administration; type: in vivo, patients; settings: 14 days; for Pulse rate after treatment, average / Pulse rate difference, average: 12 patients; for Pulse rate after treatment, average / Pulse rate difference / Pulse rate after treatment: in beats/min (unit assumed); for Pulse rate difference: before minus after
Experimental: A. A therapeutic effect of the present pharmaceutical composition to tachycardia in hyperthyroidism in case of its signle administration was investigated.
To 12 patients of hyperthyroidism shown in Table VI was orally administered the active ingredient, 2-acetyl-7-(2-hydroxy-3-isopropylaminopropoxy)benzofuran hydrochloride, contained in the capsules obtained in Example 47 in a dose of 30 mg./day (3 times per day) for 14 days. The treatment evaluation was determined according to the following standard:
For reference, a therapeutic effect of an antihyperthyroidism medicament to tachycardia in hyperthyroidism in case of its single administration was investigated.
To 12 patients of hyperthyroidism shown in Table VII was orally administered Mercazol which has been widely employed as an antihyperthyroidism medicament in a dose of 30 mg./day for 14 days.

[2] = tested on: tachycardia in hyperthyroidism; experiment: clinical study: tachycardia in hyperthyroidism, combination with antihyperthyroidism medicament; type: in vivo, patients; settings: in combination with Mercazol, 14 days, per patient
Experimental: (B) A therapeutic effect of the present pharmaceutical composition in combination with an antihyperthyroidism medicament to tachycardia in hyperthyroidism was investigated.
To six patients of hyperthyroidism shown in Table VIII were orally administered the active ingredient, 2-acetyl-7-(2-hydroxy-3-isopropylaminopropoxy)benzofuran hydrochloride, contained in the capsules obtained in Example 47 and Mercazol in each dose of 30 mg./day (three times per day) for 14 days.

[3] = one value per patient, hydrochloride
[4] = hyperthyroidism, oral 30 mg./day (3 times per day), per patient, hydrochloride
[5] = Mercazol reference, oral 30 mg./day, per patient

SMILES	Treatment evaluation (cardiac arrhythmias; cardiac arrhythmias, per patient, hydrochloride)	Blood pressure after treatment (first figure, systolic) (cardiac arrhythmias; [3])	Blood pressure after treatment (second figure, diastolic) (cardiac arrhythmias; [3])	Heart rate/min. after treatment (cardiac arrhythmias; [3])	Side effect (cardiac arrhythmias; per patient)	Treatment evaluation (angina pectoris)	good therapeutic results (hypertension)	Pulse rate after treatment, average ([1]; oral 30 mg./day, average before treatment 114.5, standard deviation 11.6)	Pulse rate difference, average ([1]; oral 30 mg./day, standard deviation printed 1.1)	Pulse rate difference ([1]; oral 30 mg./day (3 times per day), per patient, hydrochloride)	Side effect ([1]; hyperthyroidism, oral 30 mg./day (3 times per day), per patient)	Treatment evaluation [1, 4]	Pulse rate after treatment [1, 4]	Pulse rate after treatment ([2]; each oral 30 mg./day (three times per day), hydrochloride, in beats/min (unit assumed))	Side effect ([2]; each oral 30 mg./day)	Treatment evaluation ([2]; each oral 30 mg./day, hydrochloride)	Pulse rate after treatment, average ([1]; Mercazol reference, oral 30 mg./day, average before treatment 111.3, standard deviation 8.6)	Pulse rate difference, average ([1]; Mercazol reference, oral 30 mg./day, standard deviation printed 0.6)	Pulse rate difference [1, 5]	Pulse rate after treatment [1, 5]
CC(=O)c1cc2cccc(OCC(O)CNC(C)C)c2o1.Cl (centres unmarked) [2-acetyl-7-(2-hydroxy-3-isopropylaminopropoxy)benzofuran hydrochloride]	+ and ± and - and ++	96 mmHg and 114 mmHg and 104 mmHg and 130 mmHg and 145 mmHg and 154 mmHg and 165 mmHg and 125 mmHg and 108 mmHg and 135 mmHg and 118 mmHg	66 mmHg and 70 mmHg and 62 mmHg and 78 mmHg and 110 mmHg and 75 mmHg and 80 mmHg and 68 mmHg	60 min⁻¹ and 82 min⁻¹ and 68 min⁻¹ and 72 min⁻¹ and 76 min⁻¹ and 64 min⁻¹ and 100 min⁻¹	No	± and + and - and ++	three patients among four, good therapeutic results were obtained	90.4	23.8 beats/min	22 and 32 and 14 and 30 and 51 and 28 and 24 and 20 and 8 and 16	No	++ (Extremely effective (++): The pulse rate before treatment was decreased in a difference of not less than 20 after treatment.); also recorded: + (Effective (+): The pulse rate before treatment was decreased in a difference of 10 to 19 after treatment.)	80 and 108 and 88 and 100 and 77 and 76 and 84	88 and 76 and 78 and 68 and 82	No	+ (Effective (+): The pulse rate before treatment was decreased in a difference of 10 to 19 after treatment.); also recorded: ++ (Extremely effective (++): The pulse rate before treatment was decreased in a difference of not less than 20 after treatment.)				
Cn1cc[nH]c1=S [Mercazol, reference compound]																	100.2	12 beats/min	20 and 22 and 10 and 14 and 12 and 4 and 0	90 and 110 and 100 and 108 and 116
